In assay [1] the test system is MCF-7 breast adenocarcinoma cells. Nature of the assay: MCF-7 Proliferation Assay. Format: cell-based. As to conditions: antagonist mode, E2 10 pM, 14C-thymidine, B = class at 1 micromolar; for IC50: Homo sapiens, MCF7. The protocol: MCF-7 Proliferation Assay
MCF-7 breast adenocarcinoma cells (ATCC HTB 22) are maintained in MEM (minimal essential medium, phenol red-free, Gibco BRL) supplemented with 10% fetal bovine serum (FBS) (VN), L-glutamine (2 mM), sodium pyruvate (1 mM), HEPES ((N-[2-hydroxyethyl]piperazine-N′-[2-ethanesulfonic acid]) 10 mM}, non-essential amino acids(0.1 mM)and Penicillin Streptomycin(1×). Seven days prior to assay, MCF-7 cells are switched to assay media which is the same as maintenance medium except supplemented with 10% dextran-coated charcoal-stripped fetal bovine serum (DCC-FBS) assay medium in place of 10% FBS. MCF-7 cells are removed from flasks using 10× Trypsin EDTA (phenol red free, Gibco BRL) and diluted to 1× in (Ca++/Mg++ free HBSS (phenol red-free). Cells are adjusted to 80,000 cells/ml in assay medium. Approximately 8,000 cells (100 μl) are added to each well in 96 well Cytostar T scintillation plates (Amersham) and incubated at 37° C. in a 5% CO2 humidified incubator for 24 hours to allow cell adherence and equilibration after transfer. Serial dilutions of drugs are prepared in assay medium at 4× the final desired concentration). A 50 μl aliquot of drug dilutions (at 4× the final assay concentration) is transferred to duplicate wells followed by 50 μl assay medium for the agonist mode or 50 μl of 40 pM of E2 for the antagonist mode to a final volume of 200 μl. For each of the agonist plates, a basal level (media) and a maximum stimulated level (with 1 μM E2) is determined. For each of the antagonist plates, a basal level (media) and a E2 (10 pM) alone control is determined. After an additional 48 hours at 37° C. in a 5% CO2 humidified incubator, 20 μl of assay medium containing 0.01 μCi of ^14C-thymidine (52 mCi/mmol, […], Amersham) is added to each well. The plates are incubated overnight in the same incubator and then counted on the Wallac Microbeta counter. […] For the agonist mode, an EC50 and percent of maximum E2 stimulation and concentration of maximum stimulation is calculated.

Assay [2] deals with Ishikawa human endometrial tumor cells. Nature of the assay: Ishikawa Alkaline Phosphatase Assay. Format: cell-based. Conditions: for EC50 / IC50: Homo sapiens, Ishikawa; for EC50 / Agonist % Eff: agonist mode; for Agonist % Eff: % efficacy versus the response to Tamoxifen; for % Eff / IC50: antagonist mode; for % Eff: % efficacy versus E2 (1 nM) alone; for IC50: with E2 (1 nM). The text has this:
Ishikawa Alkaline Phosphatase Assay
Ishikawa human endometrial tumor cells are maintained in MEM (minimum essential medium, with Earle's salts and L-Glutamine, Gibco BRL, Gaithersburg, Md.), supplemented with 10% fetal bovine serum (FBS) (V/V), (Gibco BRL). One day prior to assay, growth media is changed to assay medium, DMEM/F-12 (3:1) (Dulbecco's Modified Eagle Medium: Nutrient Mixture F-12, 3:1 Mixture, phenol red-free, Gibco BRL) supplemented with 5% dextran coated charcoal stripped fetal bovine serum (DCC-FBS) (Hyclone, Logen, Utah), L-Glutamine (2 mM), MEM sodium pyruvate (1 mM), HEPES (N-[2-hydroxyethyl]piperazine-N′-[2-ethanesulfonic acid] 2 mM) all from Gibco BRL). After an overnight incubation, ishikawa cells are rinsed with Dulbecco's
Phosphate Buffered Saline (1×) (D-PBS) without Ca^+2 and Mg^+2 (Gibco BRL), and typsinized by a 3 minute incubation with 0.25% Trypsin/EDTA, phenol red-free (Gibco BRL). Cells are resuspended in assay medium and adjusted to 250,000 cells/ml. Approximately 25,000 cells in a 100 ul media are added to flat-bottom 96 wells microculture plates (Costar 3596) and incubated at 37° C. in a 5% CO2 humidified incubator for 24 hours. The next day, serial dilutions of compounds are prepared in assay medium (at 6 times the final concentration in the assay). The assay is run in dual mode, agonist and antagonist modes. For the agonist mode, plates receive 25 μl/well of assay medium followed by 25 μl/well of diluted compounds (at 6× the final concentrations). For the antagonist mode, plates receive 25 μl/well of 6 nM E2 (β-Estradiol, Sigma, St. Louis, Mo.) followed by 25 μl/well of diluted compounds (at 6× the final concentrations). After an additional 48-hour incubation at 37° C. in a 5% CO2 humidified incubator, media is aspirated from wells and 100 μl fresh assay medium is added to each microculture. Serial dilutions of compounds are prepared and added to the cells as described above. After an additional 72 hour incubation at 37° C. in a 5% CO2 humidified incubator, the assay is quenched by removing media and rinsing plates twice in Dulbecco's Phosphate Buffered Saline (1×) (D-PBS) (Gibco BRL). The plates are dried for 5 min and frozen at −70° C. for at least 1 hour. The plates are then removed from the freezer and allowed to thaw at room temperature. To each well, 100 μl of 1-Step™ PNPP (Pierce Chemical Company, Rockford, Ill.) is added. After a 20-minute incubation, plates are read on a spectophotometer at 405 nm. The data is fitted to a linear interpolation to derive EC50 (for agonist mode) or IC50 (for antagonist mode) values. For the agonist mode, a % efficacy for each compound is calculated versus the response to Tamoxifen. For the antagonist mode, a % efficacy for each compound is calculated versus E2 (1 nM) alone.

For assay [3], the target named is T1, ERbeta receptor (PanVera) (Homo sapiens, UniProt Q92731).
T1 construct: purchased PanVera
T1 sequence (Q92731 whole entry): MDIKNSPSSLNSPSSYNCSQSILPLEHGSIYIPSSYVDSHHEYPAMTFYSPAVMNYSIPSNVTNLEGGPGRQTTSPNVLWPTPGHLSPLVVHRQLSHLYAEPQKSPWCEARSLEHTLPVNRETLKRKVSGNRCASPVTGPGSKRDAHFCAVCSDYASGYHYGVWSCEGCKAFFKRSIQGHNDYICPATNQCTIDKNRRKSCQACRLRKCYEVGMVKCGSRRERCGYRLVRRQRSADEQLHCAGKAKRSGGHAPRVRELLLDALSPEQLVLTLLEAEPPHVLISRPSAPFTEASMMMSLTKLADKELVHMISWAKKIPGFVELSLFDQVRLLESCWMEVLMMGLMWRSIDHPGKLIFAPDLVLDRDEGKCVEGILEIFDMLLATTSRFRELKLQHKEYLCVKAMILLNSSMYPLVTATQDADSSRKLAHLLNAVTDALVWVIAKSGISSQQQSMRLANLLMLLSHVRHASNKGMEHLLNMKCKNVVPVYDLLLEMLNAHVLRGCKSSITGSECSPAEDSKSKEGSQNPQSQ
Nature of the assay: ER competition binding assay (3H-Estradiol), ERbeta. Conditions: IC50 converted to Ki by Cheng-Prusoff; 3H-Estradiol competition; A = class at 10 microMolar; read-out: Ki (ERβ). The protocol: (§1) Competition binding assay is run in a buffer containing 50 mM Hepes, pH 7.5, 1.5 mM EDTA, 150 mM NaCl, 10% glycerol, 1 mg/ml ovalbumin and 5 mM DTT, using 0.025 μCi per well ^3H-Estradiol(NEN #NET517 at 118 Ci/mmol, 1 mCi/ml), 10 ng/well ERAlpha or ERbeta receptor (PanVera). Competing compounds are added at 10 different concentrations. Non-specific binding is determined in the presence of 1 μM of 17-B Estradiol. The binding reaction (140 μl) is incubated for 4 hours at room temperature, then 70 μl of cold DCC buffer is added to each reaction (DCC buffer contains per 50 ml of assay buffer, 0.75 g of charcoal (Sigma) and 0.25 g of dextran (Pharmacia)). Plates are mixed 8 minutes on an orbital shaker at 4° C. Plates are then centrifuged at 3,000 rpm at 4° C. for 10 minutes. An aliquot of 120 μl of the-mix is transferred to another 96-well, white flat bottom plate (Costar) and 175 μl of Wallac Optiphase “Hisafe 3” scintillation fluid is added to each well. Plates are sealed and shaken vigorously on an orbital shaker. After an incubation of 2.5 hrs, read plates in a Wallac Microbeta counter. […] The Kd for ^3H-Estradiol is determined by saturation binding to ER alpha and ER beta receptors. The IC50 values for compounds are converted to Ki using Cheng-Prusoff equation and the Kd determined by saturation binding assay.

Assay [4] has as its target T2, ERAlpha receptor (PanVera) (Homo sapiens, UniProt P03372).
T2 construct: purchased PanVera
T2 sequence (P03372 1-595): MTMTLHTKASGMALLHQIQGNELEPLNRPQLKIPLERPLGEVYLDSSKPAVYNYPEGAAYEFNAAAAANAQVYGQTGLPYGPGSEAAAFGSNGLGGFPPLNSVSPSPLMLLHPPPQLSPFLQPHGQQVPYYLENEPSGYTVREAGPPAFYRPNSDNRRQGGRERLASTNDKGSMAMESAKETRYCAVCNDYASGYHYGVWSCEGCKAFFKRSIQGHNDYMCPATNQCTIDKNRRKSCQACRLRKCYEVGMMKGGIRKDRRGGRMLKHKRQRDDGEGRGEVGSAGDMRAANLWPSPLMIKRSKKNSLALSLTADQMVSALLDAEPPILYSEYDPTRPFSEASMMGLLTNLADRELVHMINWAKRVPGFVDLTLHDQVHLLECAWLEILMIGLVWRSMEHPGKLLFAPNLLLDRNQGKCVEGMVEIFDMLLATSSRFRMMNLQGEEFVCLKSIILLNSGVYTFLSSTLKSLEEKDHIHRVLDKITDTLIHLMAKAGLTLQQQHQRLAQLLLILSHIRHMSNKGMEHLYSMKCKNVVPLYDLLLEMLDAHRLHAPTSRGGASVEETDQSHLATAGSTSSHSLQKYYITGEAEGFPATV
Kind of assay: ER competition binding assay (3H-Estradiol), ERalpha. Conditions: IC50 converted to Ki by Cheng-Prusoff; 3H-Estradiol competition; A = class at 10 microMolar; read-out: Ki (ERα). As to the method: as §1

For orientation: EC50 means the concentration that produces a half-maximal response. Lower therefore signals a more potent agent. What is called Ki is a measure of affinity in units of concentration, obtained from inhibition or displacement. One may read the IC50 as the concentration that inhibits the measured activity by half. Low readings indicate greater potency, high ones weaker potency.

On to `COc1ccc(C2CCc3cc(OC)ccc3N2C(=O)c2ccc(OCCN3CCCCC3)cc2)cc1` (stereo not drawn) [Example 1, [6-Methoxy-2-(4-methoxyphenyl)-3,4-dihydro-2H-quinolin-1-yl]-[4-4-(2-piperidin-1-yl-ethoxy)phenyl]methanone], for which the “IC50 (MCF7)” value in assay [1] is on record as “B^† (B means < 50% inhibition at 1 micromolar)”. In assay [2], a half-maximal effect (EC50) was put at 0.0229 µM, the “Agonist % Eff” value is reported as 18% and the “% Eff” value is recorded as 18%.

Consider `Oc1cccc(C2CCc3cc(O)ccc3N2Cc2ccc(OCCN3CCCCC3)cc2)c1` (stereo not drawn) [Example 12, 2-(3-Hydroxy-phenyl)-1-[4-(2-piperidin-1-yl-ethoxy)-benzyl]-1,2,3,4-tetrahydro-quinolin-6-ol], for which the Ki in assay [3] is 0.0059 µM. Besides, the midpoint of inhibition in assay [1], the IC50, lay at 0.385 µM. Besides, in assay [2], the EC50 was 0.142 µM, half-maximal inhibition (IC50) required 0.892 µM, the “Agonist % Eff” value was 29% and the “% Eff” value was 31%.

As for `Oc1ccc(C2CCc3cc(O)ccc3N2Cc2ccc(OCCN3CCCCC3)cc2)cc1` (stereo not drawn) [Example 7, 2-(4-Hydroxy-phenyl)-1-[4-(2-piperidin-1-yl-ethoxy)-benzyl)-1,2,3,4-tetrahydroquinolin-6-ol], in assay [4], the Ki came to 0.0004 µM. This compound also yielded an IC50 in assay [1] of 0.477 µM. Further, in assay [2], the EC50 amounted to 0.219 µM, the “Agonist % Eff” value worked out at 28% and the “% Eff” value is 17%.

`O=C(c1ccc(OCCN2CCCCC2)cc1)N1c2ccc(O)cc2CCC1c1ccccc1` (stereo not drawn) [Example 4]: the inhibition constant Ki in assay [4] worked out at 0.0289 µM. In assay [2], the response was half-maximal at 0.0848 µM (EC50), the IC50 was 0.667 µM, the “Agonist % Eff” value is given as 44% and the “% Eff” value is 47%.

Consider `O=C(c1ccc(OCCN2CCCCC2)cc1)N1c2ccc(O)cc2CCC1c1ccc(O)cc1` (stereo not drawn) [Example 3], for which, in assay [4], the Ki is 0.0878 µM. Also, the Ki in assay [3] stood at 1.16 µM. Further, the IC50 in assay [1] came out at 0.989 µM. In assay [2], the response was half-maximal at 0.239 µM (EC50), the “Agonist % Eff” value is on record as 29% and the “% Eff” value amounted to 17%.

`Oc1ccc2c(c1)CCC(c1ccccc1)N2Cc1ccc(OCCN2CCCCC2)cc1` (stereo not drawn) [Example 8, 2-Phenyl-1-[4-(2-piperidin-1-yl-ethoxy)-benzyl]-1,2,3,4-tetrahydroquinolin-6-ol]: the Ki in assay [4] turned out to be 0.0013 µM. Also, in assay [3], the Ki was 0.0041 µM. For the same compound, the IC50 in assay [1] came to 0.532 µM. Moreover, in assay [2], a half-maximal effect (EC50) was put at 0.0284 µM, the IC50 was determined as 0.716 µM, the “Agonist % Eff” value came to 31% and the “% Eff” value is reported as 63%.

For the compound `COc1ccc2c(c1)CCC(c1ccccc1)N2C(=O)c1ccc(OCCN2CCCCC2)cc1` (stereo not drawn) [Example 2], in assay [1], the “IC50 (MCF7)” value is “B (B means < 50% inhibition at 1 micromolar)”. Further, in assay [2], the “Agonist % Eff” value is −5% and the “% Eff” value is given as 28%.

Values taken from patent US7056931B2, “2-substituted 1,2,3,4-tetrahydroquinolines and derivatives thereof, compositions and methods” (Eli Lilly and Company, priority 2001, dated 2006).
